According to article PMC10385664, “Projection of Target Drug Particle Size in Oral Formulations Using the Refined Developability Classification System (rDCS)” (Pharmaceutics, 2023):

System: Caco-2 cells
Assay: Caco-2 permeability assay (pH 6.5/7.4 gradient, ± elacridar)
Conditions: Caco-2, 10 µM, apical pH 6.5 / basolateral pH 7.4, 120 min, without inhibitor
Protocol: In vitro permeability studies were performed at Cyprotex Discovery Ltd. (Macclesfield, UK) using a high-throughput Caco-2 permeability assay. Permeability at 37 °C was assessed from the apical to basolateral side (A⟹B) and in opposite direction (B⟹A) applying a pH gradient with pH 6.5 in the apical and pH 7.4 in the basolateral compartment (Hanks Balanced Salt Solution, HBSS). After an incubation of 120 min, samples were diluted for analysis via liquid chromatography coupled with tandem mass spectrometry (LC-MS/MS). […] Experiments were performed in absence and presence of the P-glycoprotein (P-gp) inhibitor elacridar (10 µM) to study transporter-mediated efflux effects. The dosing solutions contained the API (10 µM) in HBSS, and DMSO in a concentration of ≤1% v/v. Lucifer yellow (100 µM) was included as fluorescent integrity marker. Further experimental details are provided in Supplementary Materials.
The apparent permeability coefficients (Papp) were calculated according to Equation (27):(27) Papp=dQ/dt/C0·A where dQ/dt is the permeation rate of the API across the cell monolayer, C0 is the starting concentration of the API in the dosing solution and A is the surface area of the cell monolayer. The efflux ratios (ERs) were calculated from the B⟹A and A⟹B Papp values to estimate whether P-gp mediated efflux was involved in the transport of the APIs. The mass balance (% recovery) was calculated from the sum of the API recovered from the acceptor and donor compartments at the end of the experiment, divided by the initial donor amount.
Table S6. Gradient of the UPLC method for analysis of lemborexant.
Table S7. Gradient of the UPLC method for analysis of istradefylline.
S.2.5. rDCS Standard Investigations: Caco‐2 permeability studies
Caco‐2 cells were obtained from the American Type Culture Collection (ATCC, Manassas, VA, USA) and used between passage numbers 40 to 60. The cells were seeded onto Millipore Multiscreen Transwell plates at a density of 1 x 10^5 cells/cm2 and cultured in Dulbeccoʹs Modified Eagleʹs Medium (DMEM). The medium was changed every two or three days. Ce l l culture was carried out at 37 °C in an atmosphere of 5 % CO2 with a relative humidity of 95 %. The permeability assay was performed on day 20.
In vitro permeability was assessed wit h a high‐throughput Caco‐2 permeability assay. The assay was prepared by rinsing apical and basolateral monolayer surfaces twice with Hanks Balanced Salt Solution (HBSS) at the desired pH and 37 °C. Subsequently, cells in the apical and basolateral compartments were incubated with HBSS at the desired pH for 40 min. A pH gradient with pH 6.5 in the apical compartment and pH 7.4 in the basolateral compartment was applied. Dosing solutions containing the API (10 μ M) were prepared by diluting a concentrated API solution in DMS O with HBSS. The final DMSO concentration was ≤ 1% v/v. Lucifer yellow (100 μM) was included in the dosing solution as fluorescent integrity marker. For the assessment of the permeability from the apical to basolateral side (A⟹B), HBSS in the apical compartment was replaced with the dosing solution. The apical inserts were placed into a companion plat e containing fresh buffer with 1% v/ v DMSO. For the assessment of the permeability from the basolateral to […]
apical side (B⟹A), HBSS was removed from the companion plate and replaced with the solution of drug in HBSS. Fresh HBSS was added to the apical insert, which was then placed into the companion plate.
Experiments were performed in absence and presence of the P‐glycoprotein (P‐gp) inhibitor elacridar (10 μM) to study transporter‐mediated efflux effects. In those experiments, elacridar was included in both compartments during the equilibration time and assay. The starting concentration (C0) was confirmed by sampling from the dosing solution immediately before dosing into the cell pl ates. After incubation of 120 minutes, the apical inserts and companion plates were separated for sampling from both compartments.

CC(C)NCC(O)COc1cccc2ccccc12 (stereo not shown) [propranolol]
Papp(A⟹B): 13.0 ± 0.7 ×10^−6 cm/s
